Reference: patent publication US12146196B2, “C-RAF mutants that confer resistance to RAF inhibitors” (DANA-FARBER CANCER INSTITUTE, INC., priority 2012, dated 2024)

What was measured:
[1] = tested on: A375 cells expressing C-RAF resistance allele P261T; test: Pharmacologic growth inhibition assay, P261T cells; format: cell-based, human; settings: for increase of GI50 values compared to the WT: A375 expressing C-RAF P261T vs WT-C-RAF
Description: (§1) GI50 values were calculated by determining the slope of the line connecting the data points that flanked the 50% point.

[2] = tested on: A375 cells expressing C-RAF resistance allele S257P; test: Pharmacologic growth inhibition assay, S257P cells; format: cell-based, human; settings: for increase of GI50 values compared to the WT: A375 expressing C-RAF S257P vs WT-C-RAF
Description: as §1

pMek1/2, pErk1/2 = test: Immunoblot of pMek/pErk in A375 cells expressing C-RAF alleles; format: cell-based, human
Description: (§2) Samples were extracted after washing twice with PBS and lysed with 150 mM NaCl, 50 mM Tris pH 7.5, 1 mM EDTA, PMSF, Sodium Fluoride, Sodium Orthovanadate and protease inhibitor cocktail in the presence of 1% NP-40. The protein content was estimated with protein assay reagent (Bio-Rad) according to the manufacturer's instructions. Equal amounts of whole cell lysates were loaded onto and separated by 8-16% SDS-PAGE ready-made gels. Proteins were transferred to polyvinylidene difluoride membranes in a Trans-Blot apparatus. Membranes were blocked with 5% skim milk in TBS containing 0.1% Tween 20 for 1 h at room temperature or overnight at 4° C. Membranes were then incubated with monoclonal or polyclonal antibody raised against the protein of interest for 1 h at room temperature or overnight at 4° C. followed by three washes with TBS containing 0.1% Tween 20. The immunoreactivity of the primary antibodies C-RAF, S259C-RAF, S338C-RAF, S621C-RAF, PERK, ERK, pMEK, MEK, 14-3-3ζ Flag (Cell Signaling), B-RAF (Santa Cruz Biotechnology) and actin (Sigma) was visualized with a secondary anti-rabbit (BD Transduction Laboratories) or anti-mouse (Santa Cruz Biotechnology) antibodies conjugated with horseradish peroxidase and subsequent development with ECL Plus (Amersham Biosciences) and autoradiography on X-OMAR TAR films. The bands were scanned and quantified by the Gel Doc system using the Quantity One software.

[3] = tested on: A375 cells expressing C-RAF resistance allele G361A; test: Pharmacologic growth inhibition assay, G361A cells; format: cell-based, human; settings: A375 expressing C-RAF G361A vs WT-C-RAF
Description: as §1

C-RAF (S259, S338, S621) = test: Immunoblot of C-RAF phosphorylation sites S259, S338, S621; format: cell-based, human; settings: for S259 phosphorylation: A375 expressing resistance mutants
Description: as §2

[4] = tested on: A375 cells expressing WT-C-RAF; test: Pharmacologic growth inhibition assay, WT-C-RAF cells; settings: Homo sapiens, A-375, 96 h
[5] = tested on: B-RAF/C-RAF heterodimerization; test: Immunoprecipitation with C-RAF, bound B-RAF; format: cell-based, human
[6] = biological target: B-RAF/C-RAF heterodimerization (Homo sapiens, UniProt P04049+P15056, V600E); test: Immunoprecipitation with C-RAF, bound B-RAF; format: cell-based; settings: A375 melanoma cells, wild-type C-RAF; 2 μM
14-3-3/C-RAF interaction [7] = test: Immunoprecipitation with C-RAF, bound 14-3-3ζ; format: cell-based, human
Description: (§3) (A) 293/T cells transiently expressing the indicated C-RAF resistance mutants in the absence (−) or presence (+) of 2 μM vemurafenib for 1 h were immunoprecipitated with C-RAF and levels of bound protein (B-RAF and 14-3-3 ζ) (upper panels) was assessed by immunoblotting. Input lysate (lower panels) show 14-3-3 ζ, B-RAF, C-RAF, pMek1/2, pErk1/2, Mek, S338 C-RAF and actin. Results are representative of more than two independent experiments. (B) A375 cells stably expressing the indicated C-RAF resistance mutants in the presence and absence of 2 μM vemurafenib for 16 h were immunoprecipitated with C-RAF and levels of bound protein (B-RAF and 14-3-3 ζ) (upper panels) was assessed by immunoblotting. Input lysate was blotted for the same as in FIG. 7A. Results are representative of more than two independent experiments.
(§4) For immunoprecipitation with C-RAF antibody (BD Biosciences) protein G-Sepharose slurry (Thermo Scientific) was washed with 1×PBS and incubated with C-RAF antibody (BD Biosciences) or normal mouse IgG (control) for 1 h at 4° C. After three washes with lysis buffer, the beads were incubated with whole cell lysates (0.5 mg of total protein) for 2 h and then washed three times with lysis buffer. The proteins were then eluted by boiling in 1×SDS-sample buffer.

14-3-3/C-RAF interaction [8] = biological target: T1, 14-3-3/C-RAF interaction (Homo sapiens, UniProt P04049); test: Immunoprecipitation with C-RAF, bound 14-3-3ζ; format: cell-based; settings: A375 cells (BRAF V600E)
T1 construct: expressed in transfected cells; 14-3-3 ζ endogenous
Description: as §3, §4

C-RAF resistance mutants [9] = test: C-RAF kinase assay (293T); format: biochemical, human; settings: 293T cells treated with 2 μM vemurafenib prior to assay; all resistance alleles examined
Description: The 293T cells (70% confluent) were transfected with 6 μg pc-DNA with His or V5 tag towards the C-terminal containing C-RAF-WT and C-RAF variant alleles. Cells were treated with vemurafenib (Allele Biotech) for 1 h and 48 h post-transfection, lysates were extracted by general protocol. Immunoprecipitation using cobalt beads was performed […] for 1 hr at 4° C. […] The phosphorylated MEK product was detected by immunostaining using a p-MEK antibody (Cell Signaling Technology), and relative p-MEK signals were quantified using densitometry, normalized to the amount of input C-RAF, and compared to C-RAF-WT as a reference.

p-MEK, p-ERK = test: Immunoblot of MEK/ERK signaling in 293T cells expressing C-RAF resistance mutants; format: cell-based, human; settings: 2 μM
Description: as §2, with “The immunoreactivity of the primary antibodies C-RAF, S259C-RAF, S338C-RAF, S621C-RAF, PERK, ERK, pMEK, MEK, 14-3-3ζ Flag (Cell Signaling), B-RAF (Santa Cruz Biotechnology) and actin (Sigma) was visualized with a secondary anti-rabbit (BD Transduction Laboratories) or anti-mouse (Santa Cruz Biotechnology) antibodies conjugated with horseradish peroxidase and subsequent development with ECL Plus (Amersham Biosciences) and autoradiography on X-OMAR TAR films.” left out

C-RAF resistance mutants [10] = test: C-RAF kinase assay (A375); format: biochemical, human; settings: A375 expressing S257P, P261T and G361A; exposure to 2 μM vemurafenib
Description: (§5) A375 cells infected with WT and mutant C-RAF alleles were cultured in the absence and presence of PLX4032 (Allele Biotech) for 16 h. Lysates were prepared with 150 mM NaCl, 50 mM Tris pH 7.5, 1 mM EDTA, PMSF, Sodium Fluoride, Sodium Orthovanadate and protease inhibitor cocktail in the presence of 1% NP-40. Immunoprecipitation with C-RAF antibody was performed overnight and bound beads were washed three times with lysis buffer, followed by kinase buffer (1×). […] The phosphorylated substrate MEK was detected by immunoblotting.

C-RAF resistance mutants [11] = biological target: T2, C-RAF resistance mutants (Homo sapiens, UniProt P04049, G361A); test: C-RAF kinase assay (A375); format: biochemical; settings: A375 expressing G361A; Vemurafenib 16 h
T2 construct: expressed in transfected cells
Description: as §5

C-RAF homodimer = test: C-RAF homodimerization, Ni2+ bead pull-down of His-tagged C-RAF, anti-Flag immunoblot; format: cell-based, human; settings: 293T cells expressing C-RAF resistance mutants; 2 μM, 1 h
Description: (A) 293T cells co-expressing His/V5-tagged and Flag-tagged C-RAF resistance mutants for 48 h were immunoprecipitated with Nickel (see Methods) to pull down His-tagged C-RAF, and Flag tagged C-RAF was assessed by immunoblotting. Input lysate was also assessed using antibodies that detected Flag-C-RAF, V5-C-RAF, total C-RAF, p-MEK, p-ERK and total ERK. (B) 293T cells co-expressing His/V5-tagged and Flag-tagged C-RAF resistance mutants were treated with either vehicle (DMSO) or 2 μM of vemurafenib for 1 h, and His/V5-tagged C-RAFwas immunoprecipitated as in (A) above. Input lysates were immunoblotted using antibodies recognizing C-RAF (S338), p-MEK, p-ERK, and actin (loading control). (C) In vitro C-Raf kinase activity was measured in cell extracts derived from 293T cells transiently expressing Flag-tagged empty vector (“C”), wild type C-RAF (“WT”), and C-RAF harboring the resistance mutants S257P, P261T, G361A and E478K. Assays were performed in the presence or absence of 2 μM vemurafenib (see Methods). […] (D) In vitro C-Raf kinase activity was measured in cell extracts derived from A375 cells (B-RAF^V600E) (“C”) and A375 stably expressing wild type C-RAF (“WT”), and C-RAF harboring the resistance mutants S257P, P261T, and G361A in the presence and absence of 2 μM vemurafenib. […]

[12] = A375 expressing S257P, P261T and G361A, PLX4720 2 μM 16 h

Which results are given for COC(=O)N[C@@H](C)CNc1nccc(-c2cn(C(C)C)nc2-c2cc(Cl)cc(NS(C)(=O)=O)c2F)n1 [(S)-methyl 1-(4-(3-(5-chloro-2-fluoro-3-(methylsulfonamido)phenyl)-1-isopropyl-1H-pyrazol-4-yl)pyrimidin-2-ylamino)propan-2-ylcarbamate]?
increase of GI50 values compared to the WT [1]: ~30,000 fold; increase of GI50 values compared to the WT [2]: ~10,000 fold; biochemical resistance (pMek/pErk) (pMek1/2, pErk1/2; 1 μM, A375 expressing C-RAF resistance mutants): conferred resistance; increase of GI50 values / resistance compared to the WT [3]: 20 fold

What does the source list for Cn1cnc2c(F)c(Nc3ccc(Br)cc3Cl)c(C(=O)NOCCO)cc21 [AZD6244]?
S259 phosphorylation (C-RAF (S259, S338, S621); AZD6244 1 μM 16 h): attenuated; pErk (pMek1/2, pErk1/2; A375 expressing resistance mutants, AZD6244 1 μM 16 h): diminishing levels

With CCCS(=O)(=O)Nc1ccc(F)c(C(=O)c2c[nH]c3ncc(Cl)cc23)c1F [PLX4720] as the compound, how does the “phosphorylation of S338” value (C-RAF (S259, S338, S621); [12]) read?
Its value is “induced”.

What about the “phosphorylation of S621” value (C-RAF (S259, S338, S621); [12]) of the same compound?
The value was “modest increase”.

And the S259 phosphorylation (C-RAF (S259, S338, S621); PLX4720)?
Its S259 phosphorylation is “induced”.

What about the “increase of GI50 values compared to the WT” value [1] of the same compound?
Its value is about 100 fold.

And the “increase of GI50 values compared to the WT” value [2]?
The value was about 100 fold.

And the “Mek phosphorylation (pMek) and Erk phosphorylation (pErk)” value (pMek1/2, pErk1/2; 2 μM, A375 cells and WT-C-RAF expressing cells)?
Its value is “attenuated”.

And the “pMek and pErk” value (pMek1/2, pErk1/2; 2 μM, A375 expressing C-RAF resistance alleles)?
Its value is “sustained pMek and pErk”.

And the p-MEK (pMek1/2, pErk1/2; A375 expressing CRAF G361A, high PLX4720 concentrations)?
The p-MEK was “substantial “paradoxical” activation”.

What about the GI50 [4] of the same compound?
The GI50 was 400 nM.

And the “increase of GI50 values / resistance compared to the WT” value [3]?
Its value is 30 fold.

With CCCS(=O)(=O)Nc1ccc(F)c(C(=O)c2c[nH]c3ncc(-c4ccc(Cl)cc4)cc23)c1F [Vemurafenib] as the compound, how does the B-RAF/C-RAF heterodimerization ([5]; 293/T cells ectopically expressing wild-type C-RAF, 2 μM) read?
Its B-RAF/C-RAF heterodimerization is “induced”.

What about the B-RAF heterodimerization ([5]; A375 cells expressing the most robust C-RAF resistance mutants, in the presence of drug) of the same compound?
Its B-RAF heterodimerization is “sustained”.

And the B-RAF/C-RAF heterodimerization [6]?
Its B-RAF/C-RAF heterodimerization is “abrogated”.

What about the “C-RAF activation (S338 phosphorylation)” value (C-RAF (S259, S338, S621); 293T cells expressing C-RAF resistance mutants, 2 μM, 1 h) of the same compound?
The value was “robustly induced”.

And the “resistance in growth inhibition” value ([1]; A375 expressing C-RAF P261T)?
The value was “increased resistance”.

What about the 14-3-3/C-RAF interactions (14-3-3/C-RAF interaction [7]; 293/T cells) of the same compound?
Its 14-3-3/C-RAF interactions is “enhanced”.

And the “14-3-3ζ binding to C-RAF S257P, P261T and G361A mutants” value (14-3-3/C-RAF interaction [7]; A375 cells (BRAF V600E))?
Its value is “no effect”.

What about the “14-3-3ζ binding to wild-type C-RAF” value (14-3-3/C-RAF interaction [8]) of the same compound?
The value was “modestly decreased”.

What about the “resistance in growth inhibition” value ([2]; A375 expressing C-RAF S257P) of the same compound?
Its value is “increased resistance”.

What about the “C-RAF kinase activity (p-MEK)” value (C-RAF resistance mutants [9]) of the same compound?
Its value is “marked up-regulation”.

And the GI50 [4]?
Its GI50 is 400 nM.

What about the “increase of GI50 values / resistance compared to the WT” value [3] of the same compound?
Its value is 50 fold.

What about the MEK/ERK activation (p-MEK, p-ERK; 293/T cells, C-RAF G361A co-expressed with dimerization-deficient R401H double mutant, 1 hr) of the same compound?
The MEK/ERK activation was “further induced”.

And the “downstream MEK/ERK signaling” value (p-MEK, p-ERK; 293T cells expressing C-RAF resistance mutants, 1 h)?
The value was “robustly induced”.

What about the C-RAF kinase activity (C-RAF resistance mutants [10]) of the same compound?
The C-RAF kinase activity was “further augmented”.

What about the “C-RAF kinase activity in presence of the drug” value (C-RAF resistance mutants [11]) of the same compound?
Its value is “even higher kinase activity”.

And the C-RAF dimerization (C-RAF homodimer)?
The C-RAF dimerization was “sustained but not further enhanced”.
